Results: US8618303B2, “Pyrrolidine derivatives” (Hoffmann-La Roche Inc., priority 2011, dated 2013)

target: human NK3 receptor (Homo sapiens (Human), UniProt P29371); assay: [3H]SR142801 competition binding assay; details: not given
Description: hNK3 receptor binding experiment were performed using [^3H]SR142801 (Catalog No. TRK1035, specific activity: 74.0 Ci/mmol, Amersham, GE Healthcare UK limited, Buckinghamshire, UK) and membrane isolated from HEK293 cells transiently expressing recombinant human NK3 receptor. After thawing, the membrane homogenates were centrifuged at 48,000×g for 10 min at 4° C., the pellets were resuspended in the 50 mM Tris-HCl, 4 mM MnCl2, 1 μM phosphoramidon, 0.1% BSA binding buffer at pH 7.4 to a final assay concentration of 5 μg protein/well. […] At the end of the incubation, membranes were filtered onto unitfilter (96-well white microplate with bonded GF/C filter preincubated 1 h in 0.3% PEI+0.3% BSA, Packard BioScience, Meriden, Conn.) with a Filtermate 196 harvester (Packard BioScience) and washed 4 times with ice-cold 50 mM Tris-HCl, pH 7.4 buffer. Nonspecific binding was measured in the presence of 10μM SB222200 for both radioligands. The radioactivity on the filter was counted (5 min) on a Packard Top-count microplate scintillation counter with quenching correction after addition of 45 μl of microscint 40 (Canberra Packard S.A., Ziirich, Switzerland) and shaking for 1 h. Inhibition curves were fitted according to the Hill equation: y=100/(1+(x/IC50), where nH=slope factor using Excel-fit 4 software (Microsoft). IC50 values were derived from the inhibition curve and the affinity constant (Ki) values were calculated using the Cheng-Prussoff equation Ki =IC50/(1+[L]/KD) where [L] is the concentration of radioligand and KD is its dissociation constant at the receptor, derived from the saturation isotherm. All experiments were performed in duplicate and the mean±standard error (SEM) of the individual Ki values was calculated.

human NK3 receptor, sequence (P29371 whole entry): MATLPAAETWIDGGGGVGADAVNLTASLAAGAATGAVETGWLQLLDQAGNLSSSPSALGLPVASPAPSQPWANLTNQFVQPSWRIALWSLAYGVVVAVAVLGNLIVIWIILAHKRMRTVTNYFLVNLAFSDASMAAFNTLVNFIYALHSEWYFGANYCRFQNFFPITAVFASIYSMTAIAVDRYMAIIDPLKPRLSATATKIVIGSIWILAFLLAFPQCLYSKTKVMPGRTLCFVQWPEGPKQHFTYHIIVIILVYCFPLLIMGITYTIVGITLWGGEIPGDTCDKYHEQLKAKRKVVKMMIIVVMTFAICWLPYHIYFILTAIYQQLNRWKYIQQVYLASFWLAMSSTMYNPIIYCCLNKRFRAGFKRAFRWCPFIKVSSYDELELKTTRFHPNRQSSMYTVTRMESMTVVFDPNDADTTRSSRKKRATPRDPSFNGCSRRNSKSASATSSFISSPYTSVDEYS

| SMILES | Ki [µM] |
| --- | --- |
| CN(C(=O)Oc1ccc(F)cc1)[C@@]1(C)CN(C(=O)C2CCN(C3CCCCC3)CC2)C[C@@H]1c1ccc(Cl)cc1 (racemic) [Example 2, rac-[(3R,4S)-4-(4-Chloro-phenyl)-1-(1-cyclohexyl-piperidine-4-carbonyl)-3-methyl-pyrrolidin-3-yl]-methyl-carbamic acid 4-fluoro-phenyl ester] | 0.0201 |
| CN(C(=O)Oc1ccc(F)cc1)[C@@]1(C)CN(C(=O)C2CCN(c3ccc(C#N)cn3)CC2)C[C@@H]1c1ccc(Cl)cc1 (racemic) [Example 9, rac-[(3R,4S)-4-(4-Chloro-phenyl)-1-(5′-cyano-3,4,5,6-tetrahydro-2H-[1,2′]bipyridinyl-4-carbonyl)-3-methyl-pyrrolidin-3-yl]-methyl-carbamic acid 4-fluoro-phenyl ester] | 0.0021 |
| CN(C(=O)Oc1ccc(F)cc1)[C@@]1(C)CN(C(=O)C2CCN(c3ccc(F)cn3)CC2)C[C@@H]1c1ccc(Cl)cc1 (racemic) [Example 12, rac-[(3R,4S)-4-(4-Chloro-phenyl)-1-(5′-fluoro-3,4,5,6-tetrahydro-2H-[1,2′]bipyridinyl-4-carbonyl)-3-methyl-pyrrolidin-3-yl]-methyl-carbamic acid 4-fluoro-phenyl ester] | 0.0076 |
| CN(C(=O)Oc1ccc(F)cc1)[C@@]1(C)CN(C(=O)c2ccc(-c3ccc(F)cc3)cc2)C[C@@H]1c1ccc(Cl)cc1 (racemic) [Example 16, rac-[(3R,4S)-4-(4-Chloro-phenyl)-1-(4′-fluoro-biphenyl-4-carbonyl)-3-methyl-pyrrolidin-3-yl]-methyl-carbamic acid 4-fluoro-phenyl ester] | 0.3 |
| CN(C(=O)Oc1ccc(F)cc1)[C@@H]1CN(C(=O)C2CCN(C(=O)C3(C)CC3)CC2)C[C@@]1(C)c1ccc(Cl)cc1 (racemic) [Example 21, rac-{(3S,4R)-4-(4-Chloro-phenyl)-4-methyl-1-[1-(1-methyl-cyclopropanecarbonyl)-piperidine-4-carbonyl]-pyrrolidin-3-yl}-methyl-carbamic acid 4-fluoro-phenyl ester] | 0.0319 |
| CN(C(=O)Oc1ccc(F)cc1)[C@@H]1CN(C(=O)C2CCN(c3ccc(C#N)cc3)CC2)C[C@@]1(C)c1ccc(Cl)cc1 (racemic) [Example 22, rac-{(3S,4R)-4-(4-Chloro-phenyl)-1-[1-(4-cyano-phenyl)-piperidine-4-carbonyl]-4-methyl-pyrrolidin-3-yl}-methyl-carbamic acid 4-fluoro-phenyl ester] | 0.0105 |

same assay, conditions: membranes from HEK293 cells transiently expressing recombinant human NK3 receptor; [3H]SR142801; Ki from IC50 by Cheng-Prussoff; read-out: Ki (uM) hNK3

| SMILES | Ki [µM] |
| --- | --- |
| CC(C)C(=O)N1CCC(C(=O)N2C[C@H](c3ccc(Cl)cc3)[C@@](C)(N(C)C(=O)Oc3ccc(F)cc3)C2)CC1 (racemic) [Example 1, rac-[(3R,4S)-4-(4-Chloro-phenyl)-1-(1-isobutyryl-piperidine-4-carbonyl)-3-methyl-pyrrolidin-3-yl]-methyl-carbamic acid 4-fluoro-phenyl ester] | 0.0105 |
| CN(C(=O)Oc1ccc(F)cc1)[C@@]1(C)CN(C(=O)c2ccc(C#N)cc2)C[C@@H]1c1ccc(Cl)cc1 (racemic) [Example 3, rac-[(3R,4S)-4-(4-Chloro-phenyl)-1-(4-cyano-benzoyl)-3-methyl-pyrrolidin-3-yl]-methyl-carbamic acid 4-fluoro-phenyl ester] | 0.0678 |
| CC(=O)N1CCC(C(=O)N2C[C@H](c3ccc(Cl)cc3)[C@@](C)(N(C)C(=O)Oc3ccc(F)cc3)C2)CC1 (racemic) [Example 4, rac-[(3R,4S)-1-(1-Acetyl-piperidine-4-carbonyl)-4-(4-chloro-phenyl)-3-methyl-pyrrolidin-3-yl]-methyl-carbamic acid 4-fluoro-phenyl ester] | 0.0116 |
| CN(C(=O)Oc1ccc(F)cc1)[C@@]1(C)CN(C(=O)C2CCOCC2)C[C@@H]1c1ccc(Cl)cc1 (racemic) [Example 5, rac-[(3R,4S)-4-(4-Chloro-phenyl)-3-methyl-1-(tetrahydro-pyran-4-carbonyl)-pyrrolidin-3-yl]-methyl-carbamic acid 4-fluoro-phenyl ester] | 0.0864 |
| Cc1cc(C(=O)N2C[C@H](c3ccc(Cl)cc3)[C@@](C)(N(C)C(=O)Oc3ccc(F)cc3)C2)cnn1 (racemic) [Example 6, rac-[(3R,4S)-4-(4-Chloro-phenyl)-3-methyl-1-(6-methyl-pyridazine-4-carbonyl)-pyrrolidin-3-yl]-methyl-carbamic acid 4-fluoro-phenyl ester] | 0.0649 |
| CN(C(=O)Oc1ccc(F)cc1)[C@@]1(C)CN(C(=O)C2CCN(C(=O)C3(C)CC3)CC2)C[C@@H]1c1ccc(Cl)cc1 (racemic) [Example 7, rac-{(3R,4S)-4-(4-Chloro-phenyl)-3-methyl-1-[1-(1-methyl-cyclopropanecarbonyl)-piperidine-4-carbonyl]-pyrrolidin-3-yl}-methyl-carbamic acid 4-fluoro-phenyl ester] | 0.005 |
| Cc1ccc(N2CCC(C(=O)N3C[C@H](c4ccc(Cl)cc4)[C@@](C)(N(C)C(=O)Oc4ccc(F)cc4)C3)CC2)nc1 (racemic) [Example 8, rac-[(3R,4S)-4-(4-Chloro-phenyl)-3-methyl-1-(5′-methyl-3,4,5,6-tetrahydro-2H-[1,2′]bipyridinyl-4-carbonyl)-pyrrolidin-3-yl]-methyl-carbamic acid 4-fluoro-phenyl ester] | 0.013 |
| CN(C(=O)Oc1ccc(F)cc1)[C@@]1(C)CN(C(=O)C2CCN(c3ccc(C#N)cc3)CC2)C[C@@H]1c1ccc(Cl)cc1 (racemic) [Example 10, rac-{(3R,4S)-4-(4-Chloro-phenyl)-1-[1-(4-cyano-phenyl)-piperidine-4-carbonyl]-3-methyl-pyrrolidin-3-yl}-methyl-carbamic acid 4-fluoro-phenyl ester] | 0.0038 |
| CC(=O)c1ccc(N2CCC(C(=O)N3C[C@H](c4ccc(Cl)cc4)[C@@](C)(N(C)C(=O)Oc4ccc(F)cc4)C3)CC2)nc1 (racemic) [Example 11, rac-[(3R,4S)-1-(5′-Acetyl-3,4,5,6-tetrahydro-2H-[1,2′]bipyridinyl-4-carbonyl)-4-(4-chloro-phenyl)-3-methyl-pyrrolidin-3-yl]-methyl-carbamic acid 4-fluoro-phenyl ester] | 0.0045 |
| CN(C(=O)Oc1ccc(F)cc1)[C@@]1(C)CN(C(=O)C2CCN(c3ccc(Cl)cn3)CC2)C[C@@H]1c1ccc(Cl)cc1 (racemic) [Example 13, rac-[(3R,4S)-4-(4-Chloro-phenyl)-1-(5′-chloro-3,4,5,6-tetrahydro-2H-[1,2′]bipyridinyl-4-carbonyl)-3-methyl-pyrrolidin-3-yl]-methyl-carbamic acid 4-fluoro-phenyl ester] | 0.01 |
| CN(C(=O)Oc1ccc(F)cc1)[C@@]1(C)CN(C(=O)c2ccc(C#N)nc2)C[C@@H]1c1ccc(Cl)cc1 (racemic) [Example 14, rac-[(3R,4S)-4-(4-Chloro-phenyl)-1-(6-cyano-pyridine-3-carbonyl)-3-methyl-pyrrolidin-3-yl]-methyl-carbamic acid 4-fluoro-phenyl ester] | 0.0774 |
| CN(C(=O)Oc1ccc(F)cc1)[C@@]1(C)CN(C(=O)C2CCN(c3ccc(C(F)(F)F)cn3)CC2)C[C@@H]1c1ccc(Cl)cc1 (racemic) [Example 15, rac-[(3R,4S)-4-(4-Chloro-phenyl)-3-methyl-1-(5′-trifluoromethyl-3,4,5,6-tetrahydro-2H-[1,2′]bipyridinyl-4-carbonyl)-pyrrolidin-3-yl]-methyl-carbamic acid 4-fluoro-phenyl ester] | 0.0115 |
| Cc1nc(-c2ccc(C(=O)N3C[C@H](c4ccc(Cl)cc4)[C@@](C)(N(C)C(=O)Oc4ccc(F)cc4)C3)cc2)no1 (racemic) [Example 17, rac-{(3R,4S)-4-(4-Chloro-phenyl)-3-methyl-1-[4-(5-methyl-[1,2,4]oxadiazol-3-yl)-benzoyl]-pyrrolidin-3-yl}-methyl-carbamic acid 4-fluoro-phenyl ester] | 0.0354 |
| CN(C(=O)Oc1ccc(F)cc1)[C@@]1(C)CN(C(=O)C2CCN(c3ccc(C#N)nc3)CC2)C[C@@H]1c1ccc(Cl)cc1 (racemic) [Example 18, rac-[(3R,4S)-4-(4-Chloro-phenyl)-1-(6′-cyano-3,4,5,6-tetrahydro-2H-[1,3′]bipyridinyl-4-carbonyl)-3-methyl-pyrrolidin-3-yl]-methyl-carbamic acid 4-fluoro-phenyl ester] | 0.0028 |
| COc1ccc(N2CCC(C(=O)N3C[C@H](c4ccc(Cl)cc4)[C@@](C)(N(C)C(=O)Oc4ccc(F)cc4)C3)CC2)nn1 (racemic) [Example 19, rac-{(3R,4S)-4-(4-Chloro-phenyl)-1-[1-(6-methoxy-pyridazin-3-yl)-piperidine-4-carbonyl]-3-methyl-pyrrolidin-3-yl}-methyl-carbamic acid 4-fluoro-phenyl ester] | 0.0129 |
| CN(C(=O)Oc1ccc(F)cc1)[C@@]1(C)CN(C(=O)c2ccc(N3CCCCC3=O)cc2)C[C@@H]1c1ccc(Cl)cc1 (racemic) [Example 20, rac-{(3R,4S)-4-(4-Chloro-phenyl)-3-methyl-1-[4-(2-oxo-piperidin-1-yl)-benzoyl]-pyrrolidin-3-yl}-methyl-carbamic acid 4-fluoro-phenyl ester] | 0.276 |
